Key:
CFTR = CFTR (Homo sapiens, UniProt P13569); assay: Ussing Chamber Electrophysiology Assay of CFTR Potentiation in CF Bronchial Epithelial Cells; assay type: cell-based; conditions: primary CF hBE cells, short-circuit current, scaled to DMSO (0%) and positive control potentiator (100%)
Source text: Ussing Chamber Electrophysiology Assay of CFTR Potentiation in CF Bronchial Epithelial Cells
Primary cystic fibrosis human bronchial epithelial (CF hBE) cells were expanded and cultured according to published methods (Neuberger et al., Ch. 4 of Cystic Fibrosis, Methods in Molecular Biology vol. 741, pp. 39-54 (2011)). Well-differentiated cells (>30 days at air/liquid interface) on Snapwell filters (Corning Costar, cat. no. 3801) were mounted in Ussing chambers (Physiologic Instruments, Inc., San Diego, Calif.). F508del/F508del cultures were assayed at 27° C. and G551D/F508del cells were assayed at 35° C. HEPES buffered physiological saline (composition (in mM): 137 NaCl, 4 KCl, 1 MgCl2, 1.8 CaCl2, 10 HEPES Na) was used in both apical and basolateral chambers. Chambers were bubbled with air to promote mixing and the voltage was clamped to zero. Amiloride (30 uM), forskolin (10 uM), test compound (4 increasing concentrations), and CFTRinh-172 (20 uM) were added sequentially with 20-25 minutes between additions. Short-circuit currents were acquired and analyzed using LabScribe2. Test compound responses were scaled relative to responses for DMSO (0%) and the maximal response of a positive control potentiator (100%).

F508del V470 CFTR = F508del V470 CFTR (Homo sapiens, UniProt P13569, DEL508-508); assay: FRT Ion Flux Assay of F508del CFTR Potentiation; assay type: cell-based; conditions: FRT cells expressing F508del V470 CFTR and halide-sensitive YFP, forskolin 20 uM, 30 min
Chain of F508del V470 CFTR (P13569 with tags, fused parts or gaps DEL508-508): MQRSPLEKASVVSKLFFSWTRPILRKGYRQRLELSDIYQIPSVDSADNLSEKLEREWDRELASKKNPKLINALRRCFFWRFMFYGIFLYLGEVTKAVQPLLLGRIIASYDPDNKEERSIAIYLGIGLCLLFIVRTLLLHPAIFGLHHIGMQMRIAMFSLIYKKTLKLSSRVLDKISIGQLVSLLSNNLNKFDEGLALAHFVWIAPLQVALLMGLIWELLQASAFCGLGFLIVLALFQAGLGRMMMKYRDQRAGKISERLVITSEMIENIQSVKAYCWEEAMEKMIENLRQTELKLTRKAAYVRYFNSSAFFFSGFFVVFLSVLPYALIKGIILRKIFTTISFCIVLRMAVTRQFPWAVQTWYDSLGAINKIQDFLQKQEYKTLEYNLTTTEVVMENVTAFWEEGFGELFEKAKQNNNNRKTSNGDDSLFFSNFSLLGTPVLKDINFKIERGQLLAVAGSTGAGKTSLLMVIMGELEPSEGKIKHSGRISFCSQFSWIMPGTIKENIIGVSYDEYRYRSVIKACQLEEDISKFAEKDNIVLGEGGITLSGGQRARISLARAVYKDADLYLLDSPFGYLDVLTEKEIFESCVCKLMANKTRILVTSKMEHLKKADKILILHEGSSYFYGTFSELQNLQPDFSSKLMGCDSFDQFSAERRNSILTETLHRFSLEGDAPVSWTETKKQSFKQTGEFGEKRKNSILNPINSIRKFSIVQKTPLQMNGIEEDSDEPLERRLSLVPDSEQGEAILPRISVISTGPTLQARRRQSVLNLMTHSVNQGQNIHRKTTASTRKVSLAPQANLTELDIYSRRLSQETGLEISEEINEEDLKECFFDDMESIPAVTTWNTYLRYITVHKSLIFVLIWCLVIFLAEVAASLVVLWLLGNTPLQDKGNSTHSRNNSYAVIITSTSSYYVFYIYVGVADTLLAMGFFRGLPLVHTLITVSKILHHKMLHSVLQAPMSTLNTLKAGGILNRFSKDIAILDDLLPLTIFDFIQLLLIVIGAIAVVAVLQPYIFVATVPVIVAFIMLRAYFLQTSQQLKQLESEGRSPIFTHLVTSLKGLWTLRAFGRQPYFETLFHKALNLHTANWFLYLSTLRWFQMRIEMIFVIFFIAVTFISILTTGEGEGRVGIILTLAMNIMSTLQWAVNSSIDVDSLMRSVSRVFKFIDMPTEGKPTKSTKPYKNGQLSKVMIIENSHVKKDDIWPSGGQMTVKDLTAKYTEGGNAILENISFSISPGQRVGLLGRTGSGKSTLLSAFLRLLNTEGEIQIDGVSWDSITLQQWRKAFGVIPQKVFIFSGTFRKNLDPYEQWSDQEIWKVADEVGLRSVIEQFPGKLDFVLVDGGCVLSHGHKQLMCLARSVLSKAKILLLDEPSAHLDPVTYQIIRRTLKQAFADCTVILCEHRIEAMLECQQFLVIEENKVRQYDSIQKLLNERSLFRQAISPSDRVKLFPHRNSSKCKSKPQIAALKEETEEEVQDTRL
Procedure: FRT Ion Flux Assay of F508del CFTR Potentiation
Fischer rat thyroid (FRT) cell lines stably expressing recombinant F508del V470 CFTR and halide-sensitive yellow fluorescent protein (Pedemonte et al., J. Clin. Invest. 115(9) 2564-71 (2005)) were seeded at 25,000 cells/well in 50 uL/well of culture medium into black-walled, clear bottom tissue-culture-treated 384-well plates (Corning, cat. no. 3712). After one day, the cells were pre-incubated at 27° C./5% CO2 for 16-24 hours. The cells were then washed with dPBS and treated with forskolin (20 uM) and test compound for 30 min by addition of 20 uL of compound dilution buffer (dPBS containing forskolin and test compound). Plates were loaded into FLIPR384 fluorescence imaging plate reader (Molecular Devices). After an initial fluorescence reading, iodide buffer (25 uL) (composition (in mM): 137 NaI, 1.5 K2PO4, 8.1 NaH2PO4, 2.7 KCl, 0.5 MgCl2, 1 CaCl2) was added and a second fluorescence reading was made after approximately 21 seconds. Data treatment involved division of the second fluorescence reading by the initial fluorescence reading, then scaling of the resulting normalized endpoint fluorescence with respect to the responses for DMSO (0%) and a positive control potentiator (100%).

Row | Structure (SMILES) | EC50 (CFTR) | EC50 (F508del V470 CFTR)
1 | CCC(c1cn(-c2ccccc2F)nn1)c1cc(-c2cnc(C(F)(F)F)nc2)c2c(N)ncnn12 (single isomer, unassigned) [Example 58, 7-{1-[1-(2-fluorophenyl)-1H-1,2,3-triazol-4-yl]propyl}-5-[2-(trifluoromethyl)pyrimidin-5-yl]pyrrolo[2,1-f][1,2,4]triazin-4-amine] | 36.6 nM | 91.2 nM
2 | CC(c1cc(-c2ccccc2F)no1)c1c(C#N)c(-c2cnc(C(F)(F)F)nc2)c2c(N)ncnn12 (single isomer, unassigned) [Example 19, 4-amino-7-{1-[3-(2-fluorophenyl)-1,2-oxazol-5-yl]ethyl}-5-[2-(trifluoromethyl)pyrimidin-5-yl]pyrrolo[2,1-f][1,2,4]triazine-6-carbonitrile] | 5 nM | 13.8 nM
3 | CC(c1cn(-c2ccccc2F)nn1)c1c(C#N)c(-c2cnc(C(F)(F)F)nc2)c2c(N)ncnn12 (single isomer, unassigned) [Example 1, 4-amino-7-{1-[1-(2-fluorophenyl)-1H-1,2,3-triazol-4-yl]ethyl}-5-[2-(trifluoromethyl)pyrimidin-5-yl]pyrrolo[2,1-f][1,2,4]triazine-6-carbonitrile] | 51.1 nM | 46.8 nM
4 | N#Cc1c(-c2cnc(C(F)(F)F)nc2)c2c(N)ncnn2c1Cc1cnn(-c2ccccc2F)c1 [Example 30, 4-amino-7-{[1-(2-fluorophenyl)-1H-pyrazol-4-yl]methyl}-5-[2-(trifluoromethyl)pyrimidin-5-yl]pyrrolo[2,1-f][1,2,4]triazine-6-carbonitrile] | 0.86 nM | 0.57 nM
5 | CC(c1cc(-c2ccccc2F)no1)c1c(C#N)c(-c2cnc(C(F)(F)F)nc2)c2c(N)ncnn12 (single isomer, unassigned) [Example 18, 4-amino-7-{1-[3-(2-fluorophenyl)-1,2-oxazol-5-yl]ethyl}-5-[2-(trifluoromethyl)pyrimidin-5-yl]pyrrolo[2,1-f][1,2,4]triazine-6-carbonitrile] | 1.67 nM | 3.1 nM
6 | CCC(c1cn(-c2ccccc2F)nn1)c1c(C#N)c(-c2cnc(C(F)(F)F)nc2)c2c(N)ncnn12 (single isomer, unassigned) [Example 4, 4-amino-7-{1-[1-(2-fluorophenyl)-1H-1,2,3-triazol-4-yl]propyl}-5-[2-(trifluoromethyl)pyrimidin-5-yl]pyrrolo[2,1-f][1,2,4]triazine-6-carbonitrile] | 20.5 nM | 35.8 nM
7 | CC(c1cn(-c2ccccc2F)nn1)c1cc(-c2cnc(C(F)(F)F)nc2)c2c(N)ncnn12 (single isomer, unassigned) [Example 54, 7-{1-[1-(2-fluorophenyl)-1H-1,2,3-triazol-4-yl]ethyl}-5-[2-(trifluoromethyl)pyrimidin-5-yl]pyrrolo[2,1-f][1,2,4]triazin-4-amine] | 6.48 nM | 7.4 nM
8 | CC(c1cnn(-c2ccc(F)cc2F)c1)c1c(C#N)c(-c2cnc(C(F)(F)F)nc2)c2c(N)ncnn12 (single isomer, unassigned) [Example 20, 4-amino-7-{1-[1-(2,4-difluorophenyl)-1H-pyrazol-4-yl]ethyl}-5-[2-(trifluoromethyl)pyrimidin-5-yl]pyrrolo[2,1-f][1,2,4]triazine-6-carbonitrile] | 8.94 nM | 30 nM
9 | CC(c1cn(-c2ccccc2F)nn1)c1cc(-c2cnc(C(F)(F)F)nc2)c2c(N)ncnn12 (single isomer, unassigned) [Example 53, 7-{1-[1-(2-fluorophenyl)-1H-1,2,3-triazol-4-yl]ethyl}-5-[2-(trifluoromethyl)pyrimidin-5-yl]pyrrolo[2,1-f][1,2,4]triazin-4-amine] | 171 nM | 76.4 nM
10 | CC(c1cn(-c2ccc(F)cc2F)nn1)c1c(C#N)c(-c2cnc(C(F)(F)F)nc2)c2c(N)ncnn12 (stereo not drawn) [Example 24, 4-amino-7-{1-[1-(2,4-difluorophenyl)-1H-1,2,3-triazol-4-yl]ethyl}-5-[2-(trifluoromethyl)pyrimidin-5-yl]pyrrolo[2,1-f][1,2,4]triazine-6-carbonitrile] | 20.9 nM | 28.7 nM
11 | CCC(c1cn(-c2ccccc2F)nn1)c1c(C#N)c(-c2cnc(C(F)(F)F)nc2)c2c(N)ncnn12 (stereo not drawn) [Example 25, 4-amino-7-{1-[1-(2-fluorophenyl)-1H-1,2,3-triazol-4-yl]propyl}-5-[2-(trifluoromethyl)pyrimidin-5-yl]pyrrolo[2,1-f][1,2,4]triazine-6-carbonitrile] | 7.86 nM | 

Now from value to molecule:

Row | EC50 (CFTR) | EC50 (F508del V470 CFTR) | Structure (SMILES)
12 | 9.95 nM | 17.6 nM | CCC(c1cn(-c2cc(F)ccc2F)nn1)c1cc(-c2cnc(C(F)(F)F)nc2)c2c(N)ncnn12 (single isomer, unassigned) [Example 62, 7-{1-[1-(2,5-difluorophenyl)-1H-1,2,3-triazol-4-yl]propyl}-5-[2-(trifluoromethyl)pyrimidin-5-yl]pyrrolo[2,1-f][1,2,4]triazin-4-amine]
13 | 189 nM | 219 nM | CCC(c1cn(-c2ccccc2F)nn1)n1nc(-c2cnc(C(F)(F)F)nc2)c2c(N)ncnc21 (single isomer, unassigned) [Example 89, 1-{1-[1-(2-fluorophenyl)-1H-1,2,3-triazol-4-yl]propyl}-3-[2-(trifluoromethyl)pyrimidin-5-yl]-1H-pyrazolo[3,4-d]pyrimidin-4-amine]
14 | 115 nM | 249 nM | CCC(c1cn(-c2ccc(F)cc2F)nn1)c1cc(-c2cnc(C(F)(F)F)nc2)c2c(N)ncnn12 (single isomer, unassigned) [Example 59, 7-{1-[1-(2,4-difluorophenyl)-1H-1,2,3-triazol-4-yl]propyl}-5-[2-(trifluoromethyl)pyrimidin-5-yl]pyrrolo[2,1-f][1,2,4]triazin-4-amine]
15 | 73.7 nM | 253 nM | CCC(c1cn(-c2cc(F)ccc2F)nn1)c1cc(-c2cnc(C(F)(F)F)nc2)c2c(N)ncnn12 (single isomer, unassigned) [Example 61, 7-{1-[1-(2,5-difluorophenyl)-1H-1,2,3-triazol-4-yl]propyl}-5-[2-(trifluoromethyl)pyrimidin-5-yl]pyrrolo[2,1-f][1,2,4]triazin-4-amine]
16 | 29.2 nM | 37.2 nM | CCC(c1cn(-c2ccc(F)cc2F)nn1)n1nc(-c2cnc(C(F)(F)F)nc2)c2c(N)ncnc21 (single isomer, unassigned) [Example 99, 1-{1-[1-(2,4-difluorophenyl)-1H-1,2,3-triazol-4-yl]propyl}-3-[2-(trifluoromethyl)pyrimidin-5-yl]-1H-pyrazolo[3,4-d]pyrimidin-4-amine]
17 | 177 nM | 479 nM | CCC(c1cn(-c2ccc(F)c(F)c2)nn1)c1cc(-c2cnc(C(F)(F)F)nc2)c2c(N)ncnn12 (single isomer, unassigned) [Example 64, 7-{1-[1-(3,4-difluorophenyl)-1H-1,2,3-triazol-4-yl]propyl}-5-[2-(trifluoromethyl)pyrimidin-5-yl]pyrrolo[2,1-f][1,2,4]triazin-4-amine]
18 |  | 2310 nM | CC(O)(c1cn(-c2ccccc2F)nn1)c1cc(-c2cnc(C(F)(F)F)nc2)c2c(N)ncnn12 (single isomer, unassigned) [Example 68, 1-{4-amino-5-[2-(trifluoromethyl)pyrimidin-5-yl]pyrrolo[2,1-f][1,2,4]triazin-7-yl}-1-[1-(2-fluorophenyl)-1H-1,2,3-triazol-4-yl]ethanol]
19 | 0.4 nM |  | CC(c1cnn(-c2ccccc2F)c1)c1c(C#N)c(-c2cnc(C(F)F)nc2)c2c(N)ncnn12 (single isomer, unassigned) [Example 96, 4-amino-5-[2-(difluoromethyl)pyrimidin-5-yl]-7-{1-[1-(2-fluorophenyl)-1H-pyrazol-4-yl]ethyl}pyrrolo[2,1-f][1,2,4]triazine-6-carbonitrile]
20 | 3.87 nM |  | CC(c1cnn(-c2ccccc2F)c1)c1c(C#N)c(-c2cnc(C(F)F)nc2)c2c(N)ncnn12 (single isomer, unassigned) [Example 97, 4-amino-5-[2-(difluoromethyl)pyrimidin-5-yl]-7-{1-[1-(2-fluorophenyl)-1H-pyrazol-4-yl]ethyl}pyrrolo[2,1-f][1,2,4]triazine-6-carbonitrile]

Source: patent US10131670B2, “Bicyclic heteroaryl derivatives as CFTR potentiators” (CYSTIC FIBROSIS FOUNDATION THERAPEUTICS, INC., priority 2016, dated 2018)
